{"source": "patent US8053477B2", "about": "“Inhibitors of the S100-p53 protein-protein interaction and method of inhibiting cancer employing the same” (University of Maryland, Baltimore, priority 2002, dated 2011)", "key": {"C8146A melanoma cells": {"tested_on": "C8146A melanoma cells", "assay": "siRNA transfection of C8146A melanoma cells, Western blots of S100B, p53, p21", "format": "cell-based, human", "settings": "siRNA 2.0, 20 nM; harvested 24 hrs after transfection", "method": "The small interfering RNA (siRNA) used consisted of […] (nt) double-stranded RNA, which was synthesized by Xeragon Inc. (Huntsville, Ala.). The sequence of the siRNA, i.e., 5′-ACUACUGCCUGCCACGAGUUC-3 (SEQ ID NO:6), corresponds to the S100β C-terminal end (nt 244-265) plus two dT 3′ overhang.\nDifferent concentrations of siRNA (2.0, 20 nM) were added to the cells along with 2.0 μg of pCMV.3 empty vector (Stratagene, La Jolla, Calif.). The siRNA was transfected in C8146A melanoma cells using FuGENE reagent (Roche Molecular Biochemicals, Indianapolis, Ind.) according to the manufacturer's recommendation. The cells were harvested 24 hrs later and analyzed by Western blots as described above."}, "S100B [1]": {"target": "T1, S100B (UniProt P04631)", "T1 sequence (P04631 1-92)": "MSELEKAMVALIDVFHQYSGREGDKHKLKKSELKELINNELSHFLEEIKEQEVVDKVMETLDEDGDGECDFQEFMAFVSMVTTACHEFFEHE", "assay": "Fluorescence binding / competition titrations of small molecules to S100B", "method": "(§1) Inhibition of binding of S100 proteins to p53 can be assayed by fluorescence binding/competition assays. For example, binding to S100B is monitored using fluorescent peptides such as the F43W p53 peptide ([…] (SEQ ID NO:1)) or the TRTK-12 peptide ([…] (SEQ ID NO:2)) that both contain fluorescent tryptophan residues (see Example 7). In such an assay, the binding of the peptide is monitored by changes in its fluorescence intensity at 350-370 nm in the presence of 10-20 mM calcium chloride (pH 7.4). Displacement of the peptide by the test compound is then monitored by a corresponding decrease in fluorescence intensity and the dissociation constant of the test compound from S100B is calculated using a standard competition equation (KD=Kapp/(1+[floursecent peptide]/KD peptide). The amino acid residues on S100B to which the test compound binds can then monitored by chemical shift perturbations using NMR spectroscopy.\nThe binding of the small molecules to S100B identified in the CADD search were measured using fluorescence spectroscopy. The compounds identified are as follows:\nCompounds that fluorescent (i.e., for Compounds 9, 31 and 33) were measured by a direct binding assay to S100B via fluorescence intensity changes. […] First, changes in tyrosine fluorescence (for Tyr-17 of S100B) were sufficient in some cases to evaluate binding (Rustandi et al (1998), supra; and Szabo et al, FEBS Lett., 94:249-252 (1978)). However, to circumvent problems associated with the low quantum yield of the tyrosine residue, the F43W mutant of S100B was used (FIG. 12A), and then competition studies were done with wild-type S100B (FIG. 12B). In this S100B construct (in F43W S100B), the tryptophan residue is located in the target protein binding site, so the emission of the tryptophan mutant was measured in a straightforward manner at 338 nm as a function of adding compound. This F43W mutant has similar structure, Ca^2+-binding and target binding properties of wild-type S100B. Another approach was to bind a fluorescent probe to wild-type S100B and do competition binding assays with the compound. […] Steady state experiments to determine binding constants were performed on Aminco Bowman Series 2 Luminescence Spectrophotofluorometer with the temperature of the cell (quartz cuvettes) maintained at 25° C. Two internal controls were performed in all titrations. EGTA was added to S100B to chelate the calcium and determine whether the interaction with the drug requires the Ca^2+-dependent conformational change observed for a number of protein targets (Weber et al, supra). In addition, the titrations were performed in the absence of calcium as a control. All compounds with fluorescence emission spectra were also routinely evaluated for photobleaching before proceeding. Buffers were also checked routinely for any contaminants that may fluoresce."}, "[2]": {"tested_on": "primary malignant melanoma cells (C8146A and HTB 64)", "assay": "Growth of primary malignant melanoma cells (cell counting after 13 days)", "format": "cell-based", "settings": "Homo sapiens", "method": "(§2) The effect that compounds have on the growth of primary malignant melanoma cells (cell lines: C8146A and HTB 64) and normal melanocytes (Cell Applications Inc. 104-05 from neonatal foreskin) were measured. […] The growth inhibition constants (IC50 values) results from other compounds are listed above. In these studies, typically ˜10,000 cells were distributed evenly across T25 vials. One day later, new media with or without the small molecule (2.5 μM or 25 μM) was added, and the cells were allowed to grow for an additional 13 days. Because some molecules were delivered in DMSO, the effect of DMSO (0.1-0.2% (v/v)) on cell growth was also checked and found to have no effect at these levels (FIG. 13). At this point, the cells were washed in phosphate buffer saline (PBS), harvested by treatment with trypsin, and placed in F10 media with 5.0% (v/v) fetal bovine serum (FBS), 5.0% (v/v) newborn calf serum (NCS), and 2.0% (w/v) penicillin/streptomycin. The cells were counted with a hemocytometer in quadruplicate trials."}, "holo-S100B": {"target": "T2, holo-S100B (Homo sapiens, UniProt P04271)", "T2 construct": "made in house", "T2 sequence (P04271 1-92)": "T1 sequence (P04631 1-92) with E63N, S79A", "assay": "NMR mapping of binding interface (HSQC chemical shift perturbation, STD)", "settings": "37° C.", "method": "NMR spectroscopy experiments were carried out to determine what amino acid residues of S100B and the small molecule are interacting (FIG. 14). Resonances of S100B that interact with the small molecules were identified by titrating compounds into holo-S100B and monitoring perturbations in chemical shifts of backbone amide-proton correlations in a ^15N-edited HSQC spectrum (Mori et al, J. Magnetic Resonance, B108:94-98 (1995)). […] An example of mapping the Compound-S100B interface is provided in FIGS. 14A-14C for the interaction between holo-S100B and Compound 4. […] These residues are highlighted red in FIG. 14C for titrations with Compound 4. Resonance assignments of S100B bound to the small molecules were confirmed using a 3D NOESY-HSQC experiment, and the backbone and sidechain chemical shifts of Ca^+2-loaded S100B and S100B bound to p53 peptide as described by Drohat et al (1998), supra; Rustadni et al (2000), supra; and Rustadni et al (1998), supra, were also helpful in the assignment procedure. Regions of the inhibitors that interact with S100B were identified using epitope mapping via saturation transfer difference experiments (STDs) as described by Mayer et al, J. Am. Chem. Soc., 123:6108-6117 (2001). In FIG. 14A, protons of the compound that are proximal to S100B are indicated by arrows. […]"}, "[3]": {"tested_on": "normal melanocytes (neonatal foreskin)", "assay": "Growth of normal melanocytes (cell counting)", "format": "cell-based", "settings": "compared with melanoma cells", "method": "as §2"}, "S100B [4]": {"target": "T1, S100B", "assay": "Fluorescence binding / competition titrations of small molecules to S100B", "set-up": "rows headed: KD of fluorescent probe peptide for S100B", "settings": "read-out: KD of fluorescent probe peptide for S100B; probes used in competition studies with wild-type S100B", "method": "as §1\nThe binding of the small molecules to S100B identified in the CADD search were measured using fluorescence spectroscopy. […]\nCompounds that fluorescent (i.e., for Compounds 9, 31 and 33) were measured by a direct binding assay to S100B via fluorescence intensity changes. […] First, changes in tyrosine fluorescence (for Tyr-17 of S100B) were sufficient in some cases to evaluate binding (Rustandi et al (1998), supra; and Szabo et al, FEBS Lett., 94:249-252 (1978)). […]"}, "MCF-7": {"tested_on": "MCF-7", "assay": "Bleomycin treatment of MCF-7 cells, Western blots of p53, mdm2, p21", "format": "cell-based, human", "settings": "MCF-7, wild type p53; FIG. 6B lane 2", "text": "Next, it was explored whether S100B could interact with endogenous p53 and affect the expression of mdm2 and p21. The human breast cancer cell line MCF-7, which has a wild type p53 genotype (Kastan et al, Cell, 71:587-597 (1992)), was transiently transfected with S100B. After S100B transfection, the cells were either treated (or not) with the x-ray mimic agent bleomycin to induce endogenous p53 production."}, "[5]": {"settings": "direct fluorescence, F43W S100B or peptide-probe competition, 25° C., calcium present, read-out: Kd (binding to S100B, fluorescence spectroscopy)"}, "[6]": {"settings": "312 h, primary malignant melanoma cells, screened at 2.5 μM or 25 μM, 13 days, read-out: IC50 (growth inhibition constant)"}}, "note": "Residue numbers refer to the chain shown, from its start. Read-outs that look alike come from different tables or passages of the source. Where no end group is shown, it is not given here.", "data": [{"molecule": "5′-ACUACUGCCUGCCACGAGUUC-3 [siS100B]", "values": [{"measurement": "increase in p53 levels", "setting": "C8146A melanoma cells", "value": 2.3, "unit": "fold"}, {"measurement": "lowering of S100B levels", "setting": "C8146A melanoma cells", "value": 3, "unit": "fold"}, {"measurement": "up-regulation of p21 protein levels", "setting": "C8146A melanoma cells", "value": 2.6, "unit": "fold"}]}, {"molecule": "O=C(COc1ccc(C(F)(F)F)c[n+]1[O-])c1cccc([N+](=O)[O-])c1", "note": "[Compound 1, 2-[2-(3-nitrophenyl)-2-oxoethoxy]-5-(tri-fluoromethyl)pyridinium-1-olate]", "values": [{"measurement": "Kd", "setting": "S100B [1]; [5]", "value": 2.7, "unit": "µM"}, {"measurement": "IC50", "setting": "[2]; [6]", "value": 2.5, "unit": "µM"}]}, {"molecule": "N=C(N)NC(=N)Nc1cccc(Cl)c1Cl", "note": "[Compound 3, {[(2,3,dichloroanilino)(imino)methyl]amino}methanimidamide]", "values": [{"measurement": "IC50", "setting": "[2]; primary malignant melanoma cells, read-out: IC50 (growth inhibition constant), unit inferred", "value": "< 2.5", "unit": "µM"}]}, {"molecule": "Cc1c(NS(=O)(=O)c2ccc(NC(=O)CCC(=O)O)cc2)c(=O)n(-c2ccccc2)n1C", "note": "[Compound 4, 4-(4-{[(1,5-dimethyl-3-oxo-2-phenyl-2,3,dihydro-1H-pyrazol-4-yl)amino]sulfonyl}anilino)-4-oxo butanoic acid]", "values": [{"measurement": "Kd", "setting": "S100B [1]; [5]", "value": 2, "unit": "µM"}, {"measurement": "binding site on S100B by NMR", "setting": "holo-S100B", "value": "interacts with the C-terminus of S100B (loop 4) and another region of S100B (loop 2)"}]}, {"molecule": "N=C(N)NC(=N)Nc1ccc(Cl)cc1C(=O)c1ccccc1", "note": "[Compound 9, {[(2-benzoyl-4-chloroanilino)(imino)methyl]amino}methanimidamide]", "values": [{"measurement": "Kd", "setting": "S100B [1]; [5]", "value": 4, "unit": "µM"}]}, {"molecule": "O=C(O)c1cc(N/N=C/c2ccc(-c3ccc(Cl)c(C(=O)O)c3)o2)ccc1Cl", "note": "[Compound 31]", "values": [{"measurement": "Kd", "setting": "S100B [1]; [5]", "value": "~6", "unit": "µM"}, {"measurement": "IC50", "setting": "[2]; [6]", "value": "~25", "unit": "µM"}]}, {"molecule": "COc1cc(C2Nc3ccccc3-c3nc(SC)nnc3O2)ccc1OCC(=O)O", "note": "(stereo not drawn) [Compound 33, 1,2-(3-methylthiotraizine),3,4-phenyl,6-[(2-methoxyphenoxy)Acetic Acid]morpholine]", "values": [{"measurement": "IC50", "setting": "[2]; [6]", "value": "~25", "unit": "µM"}]}, {"molecule": "CC(C)(C)NC(=O)c1cccc(N2C(=O)c3ccc(C(=O)O)cc3C2=O)c1", "note": "[Compound 44, 2-(3-tert-Butylcarbamoyl-phenyl)-1,3-dioxo-2,3-dihydro-1H-isoindole-5-carboxylic acid]", "values": [{"measurement": "Kd", "setting": "S100B [1]; [5]", "value": "~24", "unit": "µM"}]}, {"molecule": "COc1cccc(N2C(=O)c3ccc(C(=O)Nc4cc(C(=O)O)cc(C(=O)O)c4)cc3C2=O)c1", "note": "[Compound 45, 5-{[2-(3-Methoxy-phenyl)-1,3-dioxo-2,3-dihydro-1H-isoindole-5-carbonyl]-amino}-isophthalic acid]", "values": [{"measurement": "Kd", "setting": "S100B [1]; [5]", "value": "~12", "unit": "µM"}]}, {"molecule": "N=C(N)c1ccc(OCCCCCOc2ccc(C(=N)N)cc2)cc1", "note": "[pentamidine, reference compound]", "values": [{"measurement": "Kd", "setting": "S100B [1]; [5]", "value": 1.4, "unit": "µM"}, {"measurement": "Kd", "setting": "S100B [1]; read-out: binding constant (KD) between wild-type holo-S100B and pentamidine, competition of pentamidine bound to F43W S100B with wild-type S100B", "value": 0.7, "unit": "µM"}, {"measurement": "IC50", "setting": "[2]; primary malignant melanoma cells (C8146A), read-out: IC50 for inhibition of cell growth", "value": "~0.5", "unit": "µM"}, {"measurement": "effect on normal melanocytes, in words", "setting": "[3]", "value": "lesser effects on normal melanocytes"}, {"measurement": "binding site on S100B by NMR", "setting": "holo-S100B", "value": "in the p53 binding site"}]}, {"molecule": "SHLKSKKGQSTSRHKKLMWKTE [p53 (F385W), reference compound]", "values": [{"measurement": "Kd", "setting": "S100B [4]", "value": 3, "unit": "µM"}]}, {"molecule": "bleomycin", "values": [{"measurement": "basal levels of p53, mdm2 and p21, in words", "setting": "MCF-7", "value": "induced"}]}]}
